Experiments:
[1] = target: T1, PPARα (Homo sapiens, UniProt Q07869); experiment: Gal4 PPARα reporter (CTF) functional assay in CV1 cells; type: cell-based; details: versus 10 μM PPAR agonist reference compound
T1 construct: expressed in transfected cells; host or cells: CV1 (African green monkey kidney)
T1 sequence (Q07869 239-466 limits assumed): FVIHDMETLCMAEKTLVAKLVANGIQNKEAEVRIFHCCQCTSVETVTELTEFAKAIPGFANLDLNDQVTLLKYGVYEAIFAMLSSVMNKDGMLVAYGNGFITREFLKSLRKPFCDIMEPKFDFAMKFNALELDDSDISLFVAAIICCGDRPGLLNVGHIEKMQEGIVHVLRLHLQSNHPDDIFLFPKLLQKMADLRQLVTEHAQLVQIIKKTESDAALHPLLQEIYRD
Procedure: Because GPR40 is known to be activated by ligands to PPARγ, exemplified compounds are examined in Gal4 PPARα, Gal4 PPARδ, and PPARγ reporter assays to determine the selectivity of exemplified compounds for PPAR receptors. CV1 cells, which are derived from the renal tissue of an African green monkey, are transfected with various receptor and reporter plasmids using Fugene. […] After 24 hours incubation with compounds, cells are lysed and luciferase activity is determined as a measure of receptor activation by luminescence. […] The maximum percent stimulation is determined versus maximum stimulation obtained with 10 μM of an appropriate PPAR agonist reference compound, 2-methyl-2-(4-{2-methyl-3-[2-(phenylcarbonyl)-4-(trifluoromethoxy)phenoxy]propoxy}phenoxy)propanoic acid. […] Efficacy was negative for PPARα, PPARδ, and PPARγ is detected with the compound of Example 1 when examined up to […] in the specific PPAR co-transfection (CTF) functional assays described above. […]

[2] = target: hGPR40 (Homo sapiens, UniProt O14842); experiment: Human beta-arrestin agonist assay with 1% FBS (PathHunter, hEK293-hFFAR1); type: cell-based; design: host or cells: HEK293 (hEK293-hFFAR1 PathHunter cells)
From the text: Human embryonic kidney (hEK293)-hFFAR1 cells are purchased from DiscoveRx. Human osteosarcoma (U2OS) cells expressing mFFAR1 are developed by DiscoveRX. These cells co-express the Prolink (PK)-tagged GPR40 and the Enzyme Acceptor (EA)-tagged beta-arrestin fusion proteins. If activation of the GPR40 stimulates beta-arrestin recruitment, it would force complementation of the beta galactosidase (B-gal) enzyme fragments, forming a B-gal enzyme that generates a chemiluminescent signal using the DiscoveRx PathHunter detection kit. Cells are incubated overnight at 5,000 cells/well in 384 well plates in culture media containing 1% FBS (fetal bovine serum). Serial diluted compounds in DMSO (2× dilutions to generate 20 concentrations) are step down diluted in culture media containing 1% FBS (fetal bovine serum) and added to cells with a final top concentration starting of 100 μM. After addition of compounds, cells are incubated for 90 min at 37° C. in 5% CO2 incubator, and DiscoveRX kit detection reagents are added. Measurement of the chemiluminescent signal is ascertained with the Envision reader, after a 1-hour incubation at room temperature. Data are fit to a 4 parameter-fit logistics to determine EC50 values; % activity is measured versus maximum response to TAK875 at 1 μM.

[3] = tested on: Male Balb/c mice; experiment: Intraperitoneal glucose tolerance test (IPGTT); type: in vivo, mouse
Procedure: To examine the ability of Examples 1 to 20 to activate GPR40 in-vivo resulting in desired glucose lowering efficacy, i.e. reduction in plasma glucose levels, an intraperitoneal glucose tolerance test (ipGTT) study is completed, and the data is shown for the compound tested below.
Male Balb/c (Albino mice) mice (8-9 weeks of age) are single housed, and fed with normal rodent chow diet and water ad libitum. Animals are weighed; randomized by body weight; and their daily body weights are recorded. Animals are dosed daily using a formulation carrying methylcellulose and tween-80. On the night before the study, animals are fasted. In the morning, animals are dosed orally with compound or vehicle alone 60 minutes prior to the glucose tolerance test (glucose 2 g/kg, i.p.). Blood glucose levels are determined from tail bleeds taken at 0, 3, 7, 15, 30, and 60 min after glucose challenge. […] Percent lowering in glucose is calculated from the AUC data of the compound with respect to the AUC of vehicle group. The test compound is orally administered at 0.3, 1.0, 3.0, 10, 30, or 100 mg/kg, and a positive control (3-[4-(2-methyl-benzyloxy)-phenyl]-hex-4-ynoic acid, see WO2005086661 (TAK875).) is administered at 10 mg/kg. […] Glucose levels are lowered at the 30, and 60 minute time points for the positive control.

Chain of hGPR40 (O14842 whole entry, the tested form may be a part): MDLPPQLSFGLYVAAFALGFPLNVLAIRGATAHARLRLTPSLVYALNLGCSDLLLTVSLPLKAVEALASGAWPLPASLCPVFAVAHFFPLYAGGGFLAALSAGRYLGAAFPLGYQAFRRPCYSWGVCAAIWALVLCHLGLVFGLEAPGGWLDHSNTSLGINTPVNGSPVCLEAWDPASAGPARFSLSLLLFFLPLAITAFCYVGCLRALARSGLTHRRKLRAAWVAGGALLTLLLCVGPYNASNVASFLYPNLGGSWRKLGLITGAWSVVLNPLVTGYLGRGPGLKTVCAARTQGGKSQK
Chain of hGPR40 (P32121 whole entry partner, the tested form may be a part): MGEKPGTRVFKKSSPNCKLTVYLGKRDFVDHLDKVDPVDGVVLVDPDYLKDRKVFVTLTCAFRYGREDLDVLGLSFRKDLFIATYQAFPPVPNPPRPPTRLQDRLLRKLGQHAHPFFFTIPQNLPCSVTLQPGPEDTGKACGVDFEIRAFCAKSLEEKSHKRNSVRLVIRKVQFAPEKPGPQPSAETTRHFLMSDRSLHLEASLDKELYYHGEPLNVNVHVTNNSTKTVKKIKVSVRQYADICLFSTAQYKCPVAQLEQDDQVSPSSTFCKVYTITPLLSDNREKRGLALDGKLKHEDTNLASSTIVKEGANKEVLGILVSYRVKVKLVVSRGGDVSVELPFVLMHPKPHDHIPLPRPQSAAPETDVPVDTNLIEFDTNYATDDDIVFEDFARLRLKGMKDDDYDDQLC

CC#C[C@@H](CC(=O)O)c1ccc(OCc2cc(-c3ccccc3C)cn3ncnc23)cc1 [Example 1, (S)-3-[4-(6-o-Tolyl-[1,2,4]triazolo[1,5-a]pyridin-8-ylmethoxy)-phenyl]-hex-4-ynoic acid]
Efficacy for PPARα [1]: negative (Efficacy of <20% is considered negative)
EC50 ([2]; 1% FBS, 90 min, read-out: hGPR40 b-arrestin EC50): 0.0474 µM
hGPR40 b-arrestin % stimulation max (FA) ([2]; versus maximum response to TAK875 at 1 μM): 163%
Glucose levels compared to vehicle control ([3]; 30 and 60 minute time points, Example 1 at 10, 30, 100 mg/kg oral, positive control 10 mg/kg): significantly lowered
ED50 ([3]; Mus musculus, oral, 60 min before glucose 2 g/kg i.p., read-out: ED50 based on AUCs for glucose lowering): 7.9 mg/kg

Reference: US9617263B2, “Phenyl-triazolo-pyridine compounds” (Eli Lilly and Company, priority 2014, dated 2017)
